Experimental data taken from patent US20230382924A1, “MODULATORS OF CYSTIC FIBROSIS TRANSMEMBRANE CONDUCTANCE REGULATOR” (VERTEX PHARMACEUTICALS INCORPORATED, priority 2020, published 2023).
Where two headings read alike, the source gives them in different places.

Target: CFTR (Homo sapiens, UniProt P13569)
Experiment: Membrane Potential Dye, Enteroid Assay A
Format: cell-based
Settings: for EC50: read-out: Ent. A EC50
Outline: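 Signal is reported as % Activity relative to a triple CFTR modulator control (3 μM + 3 μM + 300 nM acute). Read-out: membrane potential fluorescence (20 μM methyl oxonol) monitored for 15 min after chloride-free stimulation. Dye loading took 25 min at room temperature in Bath 1 buffer containing CaCC blockers.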

Sequence of CFTR (P13569 with tags, fused parts or gaps DEL508-508): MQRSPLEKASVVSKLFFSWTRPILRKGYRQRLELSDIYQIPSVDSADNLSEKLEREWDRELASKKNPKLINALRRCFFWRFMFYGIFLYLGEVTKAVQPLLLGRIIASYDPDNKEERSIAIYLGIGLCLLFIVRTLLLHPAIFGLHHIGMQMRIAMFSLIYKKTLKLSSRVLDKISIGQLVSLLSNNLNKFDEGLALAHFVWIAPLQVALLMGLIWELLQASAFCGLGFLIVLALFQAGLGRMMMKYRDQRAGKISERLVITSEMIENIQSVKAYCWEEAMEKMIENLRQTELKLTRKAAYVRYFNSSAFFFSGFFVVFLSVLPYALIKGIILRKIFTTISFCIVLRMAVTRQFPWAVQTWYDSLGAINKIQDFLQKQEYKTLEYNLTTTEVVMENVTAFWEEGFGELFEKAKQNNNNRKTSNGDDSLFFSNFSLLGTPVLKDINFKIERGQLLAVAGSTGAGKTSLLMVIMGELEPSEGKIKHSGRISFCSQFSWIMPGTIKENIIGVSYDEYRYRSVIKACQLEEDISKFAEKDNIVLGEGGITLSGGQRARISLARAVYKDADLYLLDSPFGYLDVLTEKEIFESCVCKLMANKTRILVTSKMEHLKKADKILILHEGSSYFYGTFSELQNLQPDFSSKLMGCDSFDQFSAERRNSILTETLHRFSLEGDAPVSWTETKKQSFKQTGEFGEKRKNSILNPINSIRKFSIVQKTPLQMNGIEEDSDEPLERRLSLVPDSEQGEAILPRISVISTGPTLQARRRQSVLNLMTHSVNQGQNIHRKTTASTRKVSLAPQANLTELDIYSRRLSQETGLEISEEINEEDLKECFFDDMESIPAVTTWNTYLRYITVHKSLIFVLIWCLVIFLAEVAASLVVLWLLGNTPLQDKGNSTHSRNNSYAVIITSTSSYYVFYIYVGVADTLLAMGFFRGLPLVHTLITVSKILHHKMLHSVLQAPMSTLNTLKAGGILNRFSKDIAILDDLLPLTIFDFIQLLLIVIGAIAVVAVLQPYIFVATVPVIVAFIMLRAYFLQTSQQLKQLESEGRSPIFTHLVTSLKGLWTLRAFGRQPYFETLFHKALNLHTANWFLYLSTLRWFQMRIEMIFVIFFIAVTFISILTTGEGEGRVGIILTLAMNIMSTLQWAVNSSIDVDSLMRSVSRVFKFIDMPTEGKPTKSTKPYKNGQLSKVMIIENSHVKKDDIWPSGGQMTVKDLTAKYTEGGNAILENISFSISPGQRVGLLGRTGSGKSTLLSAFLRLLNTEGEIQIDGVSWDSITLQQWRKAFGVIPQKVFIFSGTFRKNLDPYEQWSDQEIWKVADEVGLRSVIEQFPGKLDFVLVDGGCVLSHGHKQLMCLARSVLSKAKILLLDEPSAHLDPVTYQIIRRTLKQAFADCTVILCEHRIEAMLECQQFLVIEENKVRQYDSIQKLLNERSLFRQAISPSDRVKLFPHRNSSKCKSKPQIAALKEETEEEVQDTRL

## Cc1cccc(C)c1-c1cc2nc(n1)NS(=O)(=O)c1cccc(c1)C(=O)NCC(c1ccc(CC(C)(C)C)cc1)O2 (centres unmarked) [Compound 267]
Table 8
  Ent. A Max Activity: +++ (+++ is >60%)
  EC50: < 1 µM

## Cc1cccc(C)c1-c1cc2nc(n1)NS(=O)(=O)c1cccc(c1)C(=O)N[C@H](COCc1ccccc1)CO2 [Compound 486]
Enteroid Assay A
  Ent. A Max Activity: +++ (+++ is >600%)
  EC50: 1 to 3 µM

## Cc1cccc(C)c1-c1cc2nc(n1)NS(=O)(=O)c1cccc(c1)C(=O)N[C@H](CC1(C(F)(F)F)CC1)CO2 (stereo in doubt) [Compound 289]
Table 8
  EC50: 1 to 3 µM

## Cc1cccc(C)c1-c1cc2nc(n1)NS(=O)(=O)c1cccc(c1)C(=O)N[C@@H]1CN(C(C)C)CC[C@H]1O2 [Compound 373]
Table 9
  Ent. A Max Activity: +++ (+++ is >60%)
  EC50: 1 to 3 µM

## CC(C)C[C@@H]1COc2cc(C3CCCCO3)nc(n2)NS(=O)(=O)c2cccc(c2)C(=O)N1 (some centres unmarked) [Compound 313]
Table 8
  EC50: 3 to 30 µM

## Cc1cccc(C)c1-c1cc2nc(n1)NS(=O)(=O)c1cccc(c1)C(=O)NCC(c1ccc(C(C)(C)C#N)cc1)O2 (centres unmarked) [Compound 152]
Table 8
  Ent. A Max Activity: + (+ is <30%)

## CC(C)C[C@@H]1COc2cc(C3=CCC(C)(C)CC3)nc(n2)NS(=O)(=O)c2cccc(c2)C(=O)N1 [Compound 323]
Enteroid Assay A
  Ent. A Max Activity: ++ (++ is 30-60%)
  EC50: 1 to 3 µM

## Cc1cccc(C)c1-c1cc2nc(n1)NS(=O)(=O)c1cccc(c1)C(=O)NC(C(C)C)CO2 (centres unmarked) [Compound 355]
Enteroid Assay A
  Ent. A Max Activity: ++ (++ is 30-60%)
  EC50: 1 to 3 µM

## CC(C)C[C@@H]1COc2cc(C3CC4CCC3(C)C4(C)C)nc(n2)NS(=O)(=O)c2cccc(c2)C(=O)N1 (some centres unmarked) [Compound 311]
Table 8
  EC50: < 1 µM

## Cc1cccc(C)c1-c1cc2nc(n1)NS(=O)(=O)c1cccc(c1)C(=O)NCC(c1ccc(CCC(C)(C)C)cc1)O2 (centres unmarked) [Compound 24, 10-[4-(3,3-dimethylbutyl)phenyl]-6-(2,6-dimethylphenyl)-2,2-dioxo-9-oxa-2λ^6-thia-3,5,12,19-tetrazatricyclo[12.3.1.14,8]nonadeca-1(18),4(19),5,7,14,16-hexaen-13-one]
Table 9
  Ent. A Max Activity: +++ (+++ is >60%)
  EC50: < 1 µM

## Cc1cccc(C)c1-c1cc2nc(n1)NS(=O)(=O)c1cccc(c1)C(=O)NCC(Cc1ccc(C(C)(C)C)cc1)O2 (centres unmarked) [Compound 243]
Table 8
  Ent. A Max Activity: +++ (+++ is >60%)
  EC50: < 1 µM

## Cc1cccc(C)c1-c1cc2nc(n1)NS(=O)(=O)c1cccc(c1)C(=O)N[C@@H]1CCN(CCC(C)(C)C)C[C@H]1O2 (single isomer, unassigned) [Compound 89, 5-(3,3-Dimethylbutyl)-20-(2,6-dimethylphenyl)-2-oxa-16λ^6-thia-5,9,17,19,22-pentaazatetracyclo[16.3.1.111,15.03,8]tricosa-1(21),11(23),12,14,18(22),19-hexaene-10,16,16-trione]
Table 9
  Ent. A Max Activity: + (+ is <30%)

## Cc1cc(C(F)(F)F)n(-c2cc3nc(n2)NS(=O)(=O)c2cccc(c2)C(=O)N[C@H](CC(C)C)CO3)n1 [Compound 109, (11R)-6-[3-methyl-5-(trifluoromethyl)-1H-pyrazol-1-yl]-11-(2-methylpropyl)-9-oxa-2λ^6-thia-3,5,12,19-tetraazatricyclo[12.3.1.14,8]nonadeca-1(17),4,6,8(19),14(18),15-hexaene-2,2,13-trione]
Table 8
  Ent. A Max Activity: + (+ is <30%)
  EC50: < 1 µM

## Cc1cccc(C)c1-c1cc2nc(n1)NS(=O)(=O)c1cccc(c1)C(=O)NCC(CC(C)C)O2 (centres unmarked) [Compound 490]
Enteroid Assay A
  Ent. A Max Activity: +++ (+++ is >600%)
  EC50: 1 to 3 µM

## Cc1cccc(C)c1-c1cc2nc(n1)NS(=O)(=O)c1cccc(c1)C(=O)NC1CC(CN(CCC(C)(C)C)C1)O2 (single isomer, unassigned) [Compound 80, 5-(3,3-Dimethylbutyl)-19-(2,6-dimethylphenyl)-2-oxa-15λ^6-thia-5,8,16,18,21-pentaazatetracyclo[15.3.1.13,7.110,14]tricosa-1(20),10,12,14(22),17(21),18-hexaene-9,15,15-trione]
Enteroid Assay A
  Ent. A Max Activity: ++ (++ is 30-60%)
  EC50: 1 to 3 µM

## Cc1cccc(C)c1-c1cc2nc(n1)NS(=O)(=O)c1cc(cc(C3CC3)c1)C(=O)N[C@H](CC(C)C)CO2 [Compound 136]
Table 8
  Ent. A Max Activity: + (+ is <30%)

## Cc1cccc(C)c1-c1cc2nc(n1)NS(=O)(=O)c1ccccc1C(=O)NCC(c1ccc(C(C)(C)C)cc1)O2 (centres unmarked) [Compound 222]
Table 9
  Ent. A Max Activity: + (+ is <30%)

## Cc1cccc(C)c1-c1cc2nc(n1)NS(=O)(=O)c1cccc(c1)C(=O)NCC(c1ccc(C#N)cc1)O2 (centres unmarked) [Compound 250]
Table 8
  Ent. A Max Activity: +++ (+++ is >60%)
  EC50: < 1 µM

## CC(C)C[C@@H]1COc2cc(C3C(C)CCCC3C)nc(n2)NS(=O)(=O)c2cccc(c2)C(=O)N1 (some centres unmarked) [Compound 300]
Table 8
  EC50: < 1 µM

## Cc1cccc(C)c1-c1cc2nc(n1)NS(=O)(=O)c1cccc(c1)C(=O)NCC(c1ccc(-c3ccccc3)cc1)O2 (centres unmarked) [Compound 231]
Table 8
  EC50: < 1 µM

## Cc1cccc(C)c1-c1cc2nc(n1)NS(=O)(=O)c1cccc(c1)C(=O)NCC1(CCN(Cc3ccccc3)CC1)CO2 [Compound 442]
Enteroid Assay A
  EC50: 3 to 30 µM

## Cc1cccc(C)c1-c1cc2nc(n1)NS(=O)(=O)c1cccc(c1)C(=O)NC(CC1CCCC1)CO2 (centres unmarked) [Compound 188]
Table 8
  Ent. A Max Activity: +++ (+++ is >60%)
  EC50: < 1 µM

## COc1cccc(-c2cccc(C(=O)N3CCC4(CC3)CNC(=O)c3cccc(c3)S(=O)(=O)Nc3nc(cc(-c5c(C)cccc5C)n3)OC4)c2)c1 [Compound 459]
Enteroid Assay A
  Ent. A Max Activity: ++ (++ is 30-60%)
  EC50: 1 to 3 µM

## CC(C)C[C@@H]1COc2cc(-c3ccccc3OCc3ccccc3)nc(n2)NS(=O)(=O)c2cccc(c2)C(=O)N1 [Compound 393]
Table 9
  Ent. A Max Activity: +++ (+++ is >60%)
  EC50: < 1 µM

## Cc1cccc(C)c1-c1cc2nc(n1)NS(=O)(=O)c1cc(cc(-c3ccc(C(C)(C)C)cc3)c1)C(=O)N[C@H](CC(C)C)CO2 [Compound 135]
Table 8
  Ent. A Max Activity: + (+ is <30%)

## Cc1ccc(Cc2cccc(C)c2-c2cc3nc(n2)NS(=O)(=O)c2cccc(c2)C(=O)N[C@H](CC(C)C)CO3)cc1 [Compound 394]
Table 9
  Ent. A Max Activity: +++ (+++ is >60%)
  EC50: < 1 µM

## CC(C)COc1cccc(-c2cc3nc(n2)NS(=O)(=O)c2cccc(c2)C(=O)N[C@H](CC(C)C)CO3)c1 [Compound 331]
Enteroid Assay A
  EC50: 1 to 3 µM

## Cc1cccc(C)c1-c1cc2nc(n1)NS(=O)(=O)c1cccc(c1)C(=O)NC1(CCN(C3CC4(CC4)C3)CC1)CO2 [Compound 174]
Table 9
  Ent. A Max Activity: +++ (+++ is >60%)
  EC50: 1 to 3 µM

## CC(C)C[C@@H]1COc2cc(-c3c(C(C)C)cccc3C(C)C)nc(n2)NS(=O)(=O)c2cccc(c2)C(=O)N1 [Compound 99, (11R)-6-(2,6-diisopropylphenyl)-11-isobutyl-2,2-dioxo-9-oxa-2λ^6-thia-3,5,12,19-tetrazatricyclo[12.3.1.14,8]nonadeca-1(18),4,6,8(19),14,16-hexaen-13-one]
Table 8
  Ent. A Max Activity: +++ (+++ is >60%)
  EC50: < 1 µM

## Cc1ccccc1[C@@H]1CNC(=O)c2cccc(c2)S(=O)(=O)Nc2nc(cc(-c3c(C)cccc3C)n2)O1 [Compound 276]
Table 8
  EC50: < 1 µM

## Cc1cccc(C)c1-c1cc2nc(n1)NS(=O)(=O)c1cccc(c1)C(=O)NC[C@@H](c1ccc(C(C)(C)C(F)(F)F)cc1)O2 [Compound 262]
Table 9
  Ent. A Max Activity: +++ (+++ is >60%)
  EC50: < 1 µM

## Cc1cccc(C)c1-c1cc2nc(n1)NS(=O)(=O)c1cccc(c1)C(=O)NCC1(CCN(Cc3sccc3Oc3ccccc3)CC1)CO2 [Compound 83, 6-(2,6-Dimethylphenyl)-2,2-dioxo-1′-[(3-phenoxy-2-thienyl)methyl]spiro[9-oxa-2λ^6-thia-3,5,13,20-tetrazatricyclo[13.3.1.14,8]icosa-1(19),4(20),5,7,15,17-hexaene-11,4′-piperidine]-14-one]
Enteroid Assay A
  Ent. A Max Activity: +++ (+++ is >600%)
  EC50: < 1 µM

## Cc1cccc(C)c1-c1cc2nc(n1)NS(=O)(=O)c1cc(cc(C3CCOCC3)c1)C(=O)N[C@H](CC(C)C)CO2 [Compound 138]
Table 8
  Ent. A Max Activity: + (+ is <30%)

## Cc1cccc(C)c1-c1cc2nc(n1)NS(=O)(=O)c1cccc(c1)C(=O)NCC(c1ccc(Cl)cc1)O2 (centres unmarked) [Compound 251]
Table 8
  Ent. A Max Activity: +++ (+++ is >60%)
  EC50: < 1 µM

## Cc1cccc(C)c1-c1cc2nc(n1)NS(=O)(=O)c1cccc(c1)C(=O)NCC(c1ccc(C(C)C)cc1)O2 (centres unmarked) [Compound 275]
Table 8
  EC50: < 1 µM

## Cc1cccc(C)c1-c1cc2nc(n1)NS(=O)(=O)c1cccc(c1)C(=O)NCC(c1ccc(C[Si](C)(C)C)cc1)O2 (centres unmarked) [Compound 128]
Table 9
  EC50: < 1 µM

## Cc1cccc(C)c1-c1cc2nc(n1)NS(=O)(=O)c1cccc(c1)C(=O)NCC1(CCN(C(=O)C3CCCCN3Cc3ccc(F)cc3)CC1)CO2 (centres unmarked) [Compound 456]
Enteroid Assay A
  Ent. A Max Activity: ++ (++ is 30-60%)
  EC50: 3 to 30 µM

## COc1ccccc1C1CNC(=O)c2cccc(c2)S(=O)(=O)Nc2nc(cc(-c3c(C)cccc3C)n2)O1 (centres unmarked) [Compound 280]
Table 8
  Ent. A Max Activity: +++ (+++ is >60%)
  EC50: < 1 µM

## Cc1cccc(C)c1-c1cc2nc(n1)NS(=O)(=O)c1cccc(c1)C(=O)NC[C@@H](c1cccc(C(C)(C)C)c1)O2 [Compound 273]
Table 8
  Ent. A Max Activity: +++ (+++ is >60%)
  EC50: < 1 µM

## Cc1cccc(C)c1-c1cc2nc(n1)NS(=O)(=O)c1cccc(c1)C(=O)NCC(c1ccc(C(C)(C)O)cc1)O2 (centres unmarked) [Compound 245]
Table 8
  EC50: 3 to 30 µM

## Cc1cccc(C)c1-c1cc2nc(n1)NS(=O)(=O)c1cccc(c1)C(=O)NCC(c1ccc(C34CC(C3)C4)cc1)O2 (centres unmarked) [Compound 397]
Table 9
  Ent. A Max Activity: + (+ is <30%)
  EC50: 3 to 30 µM

## CCC(CC)(CC)c1ccc([C@@H]2CNC(=O)c3cccc(c3)S(=O)(=O)Nc3nc(cc(-c4c(C)cccc4C)n3)O2)cc1 [Compound 258]
Table 9
  Ent. A Max Activity: +++ (+++ is >60%)
  EC50: < 1 µM

## Cc1cccc(C)c1-c1cc2nc(n1)NS(=O)(=O)c1cccc(c1)C(=O)N[C@@H](CC(C)C)CO2 [Compound 491]
Enteroid Assay A
  EC50: 1 to 3 µM
